Data taken from ChEMBL document CHEMBL1201862, “PubChem BioAssay data set” (2004).
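Test compounds were applied to cells in 96-well plates for 48 hours at 5 doses. GI50 marks 50% less growth.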 Activity calls are given as the source filed them. Cut-off read from the data, not from the text of the source: active = GI50 up to about 1.1 µM and inactive = higher.

Assays:
Assay in all cases: inhibition of tumour cell growth, NCI panel, 48 h
A498 = system: A498
MDA-MB-231 = system: MDA-MB-231
HT-29 = system: HT-29
SF-295 = system: SF-295
ACHN = system: ACHN
SW-620 = system: SW-620
UACC-257 = system: UACC-257
HCC 2998 = system: HCC 2998
NCI-H23 = system: NCI-H23
MCF7 = system: MCF7
SNB-19 = system: SNB-19
OVCAR-3 = system: OVCAR-3
OVCAR-8 = system: OVCAR-8
PC-3 = system: PC-3
NCI/ADR-RES = system: NCI/ADR-RES
M14 = system: M14
NCI-H460 = system: NCI-H460
DU-145 = system: DU-145
COLO 205 = system: COLO 205
MOLT-4 = system: MOLT-4

| Structure (SMILES) | GI50 (A498) | GI50 (MDA-MB-231) | GI50 (HT-29) | GI50 (SF-295) | GI50 (ACHN) | GI50 (SW-620) | GI50 (UACC-257) | GI50 (HCC 2998) | GI50 (NCI-H23) | GI50 (MCF7) | GI50 (SNB-19) | GI50 (OVCAR-3) | GI50 (OVCAR-8) | GI50 (PC-3) | GI50 (NCI/ADR-RES) | GI50 (M14) | GI50 (NCI-H460) | GI50 (DU-145) | GI50 (COLO 205) | GI50 (MOLT-4) |
| --- | --- | --- | --- | --- | --- | --- | --- | --- | --- | --- | --- | --- | --- | --- | --- | --- | --- | --- | --- | --- |
| CN[C@H]1CC[C@]23C[C@]24CC[C@]2(C)[C@@H]([C@H](C)N(C)C)CC[C@@]2(C)[C@@H]4CC[C@H]3C1(C)C | 20.6 µM (inactive) | 21.1 µM (inactive) | 2.85 µM (inactive) | 14.6 µM (inactive) | 15.6 µM (inactive) | 15.4 µM (inactive) | 15.1 µM (inactive) | 13.4 µM (inactive) | 15.7 µM (inactive) | 15.6 µM (inactive) | 16.7 µM (inactive) | 14.3 µM (inactive) | 17.3 µM (inactive) | 9.08 µM (inactive) | 18.5 µM (inactive) | 12.2 µM (inactive) | 18.2 µM (inactive) | 14.4 µM (inactive) | 12.1 µM (inactive) | 16.5 µM (inactive) |
| O=C(Cc1nc2ncccc2[nH]c1=O)c1c[nH]c2ccccc12 | 17.7 µM (inactive) | 16.7 µM (inactive) | 23 µM (inactive) | 16.5 µM (inactive) | 16.5 µM (inactive) | 17.1 µM (inactive) | 19.5 µM (inactive) | 19.8 µM (inactive) | 21.6 µM (inactive) | 16.9 µM (inactive) | 18.3 µM (inactive) | 18 µM (inactive) | 23.4 µM (inactive) | 16 µM (inactive) | 29.4 µM (inactive) | 21 µM (inactive) | 17.3 µM (inactive) | 17.5 µM (inactive) | 16.3 µM (inactive) | 26.4 µM (inactive) |
| Cc1cc2c(s1)C(N)CC2=O (stereo not given) | > 100 µM (inactive) | > 100 µM (inactive) | > 100 µM (inactive) |  | > 100 µM (inactive) | > 100 µM (inactive) | > 100 µM (inactive) | > 100 µM (inactive) |  | > 100 µM (inactive) | > 100 µM (inactive) | > 100 µM (inactive) | > 100 µM (inactive) | > 100 µM (inactive) | > 100 µM (inactive) | > 100 µM (inactive) | > 100 µM (inactive) | > 100 µM (inactive) | > 100 µM (inactive) | > 100 µM (inactive) |
| O=c1[nH]nc(Cc2ccccc2)n1/N=C\CC/C=N\n1c(Cc2ccccc2)n[nH]c1=O | > 100 µM (inactive) | 61.9 µM (inactive) | 23.4 µM (inactive) | 39.1 µM (inactive) | 49.9 µM (inactive) | 36.3 µM (inactive) | > 100 µM (inactive) | 53.8 µM (inactive) | 23 µM (inactive) | 30 µM (inactive) | 42.9 µM (inactive) | 61.7 µM (inactive) | 23.1 µM (inactive) | 37.4 µM (inactive) | 19.4 µM (inactive) | 44.9 µM (inactive) |  | 43.5 µM (inactive) | > 100 µM (inactive) | 31.1 µM (inactive) |
| Cc1sc2nc3n(c(=O)c2c1C)N=C(c1ccccc1)CS3 | > 100 µM (inactive) | > 100 µM (inactive) | > 100 µM (inactive) | 45.4 µM (inactive) | > 100 µM (inactive) | > 100 µM (inactive) | > 100 µM (inactive) | > 100 µM (inactive) | > 100 µM (inactive) | > 100 µM (inactive) |  | > 100 µM (inactive) | > 100 µM (inactive) | > 100 µM (inactive) | > 100 µM (inactive) |  | > 100 µM (inactive) | > 100 µM (inactive) | > 100 µM (inactive) | > 100 µM (inactive) |
| CCOC(=O)c1cc(C2(O)CCN(CC(C)CC)C2=O)c(-c2cc(C)no2)[nH]1 (stereo not given) | > 100 µM (inactive) | > 100 µM (inactive) | > 100 µM (inactive) | > 100 µM (inactive) |  | > 100 µM (inactive) | > 100 µM (inactive) | > 100 µM (inactive) | > 100 µM (inactive) | > 100 µM (inactive) | > 100 µM (inactive) | > 100 µM (inactive) | > 100 µM (inactive) | > 100 µM (inactive) | > 100 µM (inactive) | > 100 µM (inactive) | > 100 µM (inactive) | > 100 µM (inactive) | > 100 µM (inactive) | > 100 µM (inactive) |
| Oc1[nH]c(Nc2ccc(Cl)cc2)nc2ncnc1-2 | > 100 µM (inactive) | 88.3 µM (inactive) | 47.4 µM (inactive) | > 100 µM (inactive) | 63.7 µM (inactive) | > 100 µM (inactive) | > 100 µM (inactive) | 98.6 µM (inactive) | > 100 µM (inactive) | > 100 µM (inactive) | 33.1 µM (inactive) | > 100 µM (inactive) | > 100 µM (inactive) | > 100 µM (inactive) | > 100 µM (inactive) | 89.1 µM (inactive) | > 100 µM (inactive) | 70.1 µM (inactive) | > 100 µM (inactive) |  |
| CC(C)=CC[C@]12CCN(C)[C@H]1N(S(=O)(=O)c1ccccc1)c1ccccc12 | > 100 µM (inactive) | > 52.4 µM (inactive) | > 46.5 µM (inactive) | > 54.7 µM (inactive) | > 54.2 µM (inactive) | > 60.3 µM (inactive) | > 39.5 µM (inactive) | > 40.1 µM (inactive) | > 19.9 µM (inactive) | > 42.8 µM (inactive) | > 20.3 µM (inactive) | > 41 µM (inactive) | > 64 µM (inactive) | > 54 µM (inactive) | > 82.8 µM (inactive) |  | > 40.4 µM (inactive) | > 30.8 µM (inactive) |  | > 43.4 µM (inactive) |
| C=C([C@@]1(O)C[C@H]2[C@H](CCC2(OC)OC)[C@@H]2c3ccccc3O[C@@H]21)[Si](C)(C)C | > 100 µM (inactive) | > 100 µM (inactive) | > 100 µM (inactive) | > 100 µM (inactive) | > 100 µM (inactive) | > 100 µM (inactive) | > 100 µM (inactive) | > 100 µM (inactive) |  | 93.1 µM (inactive) | > 100 µM (inactive) | > 100 µM (inactive) | > 100 µM (inactive) | > 100 µM (inactive) | > 100 µM (inactive) | > 100 µM (inactive) | > 100 µM (inactive) | > 100 µM (inactive) | > 100 µM (inactive) | > 100 µM (inactive) |
| O=C(/C=C/c1ccc(-c2ccccc2)cc1)NCc1ccc(C(=O)NCc2ccccc2)cc1 | > 100 µM (inactive) | > 100 µM (inactive) | 71.1 µM (inactive) | > 100 µM (inactive) | > 100 µM (inactive) | > 100 µM (inactive) | > 100 µM (inactive) | > 100 µM (inactive) | 90.2 µM (inactive) | > 100 µM (inactive) | > 100 µM (inactive) | > 100 µM (inactive) | > 100 µM (inactive) | > 100 µM (inactive) | > 100 µM (inactive) | > 100 µM (inactive) | > 100 µM (inactive) | > 100 µM (inactive) | > 100 µM (inactive) |  |
| O=S1(=O)c2ccccc2C(=NO)c2ccccc21 | > 100 µM (inactive) | > 100 µM (inactive) | > 100 µM (inactive) | > 100 µM (inactive) | > 100 µM (inactive) | > 100 µM (inactive) | > 100 µM (inactive) | > 100 µM (inactive) | > 100 µM (inactive) | > 100 µM (inactive) |  | 39.7 µM (inactive) | > 100 µM (inactive) | 43.4 µM (inactive) | 57.3 µM (inactive) | > 100 µM (inactive) | > 100 µM (inactive) | > 100 µM (inactive) | > 100 µM (inactive) | 30.3 µM (inactive) |
| CCC1=C(CC2NCCc3ccccc32)CC2c3cc(OC)c(OC)cc3CCN2C1 (stereo not given) | 0.83 µM (active) | 0.358 µM (active) | 0.284 µM (active) | 0.565 µM (active) | 0.367 µM (active) | 0.384 µM (active) | 1.02 µM (active) | 0.432 µM (active) | 0.94 µM (active) | 0.292 µM (active) | 0.614 µM (active) | 0.841 µM (active) | 0.445 µM (active) | 0.333 µM (active) | 1.3 µM (inactive) | 0.502 µM (active) | 0.3 µM (active) | 0.356 µM (active) |  | 0.276 µM (active) |
| O=C(CCc1ccccc1)ON1C(=S)C(c2ccccc2)(c2ccccc2)N=C1Sc1ccccc1 | > 100 µM (inactive) | > 100 µM (inactive) | 24.5 µM (inactive) | 31 µM (inactive) | 48.1 µM (inactive) |  | > 100 µM (inactive) | 46.6 µM (inactive) | 34.4 µM (inactive) | 33.7 µM (inactive) | 52.7 µM (inactive) | 60 µM (inactive) | 38.7 µM (inactive) | 34.3 µM (inactive) | 33.7 µM (inactive) | 82.6 µM (inactive) | 12.4 µM (inactive) | 58.2 µM (inactive) | 35.5 µM (inactive) | 4 µM (inactive) |
| CN(C(=O)C1=CCC2(CC1)OCCO2)c1ccccc1OS(=O)(=O)C(F)(F)F | > 100 µM (inactive) | > 100 µM (inactive) |  | 90.2 µM (inactive) | > 100 µM (inactive) | > 100 µM (inactive) | > 100 µM (inactive) | > 100 µM (inactive) | > 100 µM (inactive) | > 100 µM (inactive) | > 100 µM (inactive) | > 100 µM (inactive) | 81.5 µM (inactive) | > 100 µM (inactive) | 53.3 µM (inactive) | > 100 µM (inactive) | 85.3 µM (inactive) | > 100 µM (inactive) | > 100 µM (inactive) | > 100 µM (inactive) |
